The values that follow come from PubChem BioAssay AID588780 (Sanford-Burnham Center for Chemical Genomics, 2011).

For orientation: IC50 means the concentration that gives 50% inhibition.

Structures are written as SMILES. Activity calls are given as the source filed them.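 How the source made its calls: active means compounds whose fitted half-maximal concentration in the cell-protection dose series is at or below a set limit; inactive means the rest.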

In this assay the test system is H9c2 cardiomyocytes, 2-deoxyglucose stress, ATP luminescence, 2 h. Kind of assay: H9c2 cell survival under 2-deoxyglucose stress – uHTS hits, dose response (AID 588780).
Turning to `COc1cccc(Cn2nc(C(=O)O)c3ccccc3c2=O)c1`, the IC50 was 32.3 µM (inactive).
Consider `CC(=O)Nc1ccc2c(c1)[nH]c(=O)c1ccccc12`, for which the IC50 was 76.5 µM (inactive).
In the case of `COc1ccc(C(=O)COC(=O)Cc2n[nH]c(=O)c3ccccc23)c(OC)c1`, the IC50 was > 79 µM (inactive).
On to `Cc1cc(N)n(-c2nc(-c3cccnc3)nc3ccccc23)n1`, for which the half-inhibitory concentration (IC50) was 19.8 µM.
With `COc1cc(C(=O)N/N=C/c2ccc(OC(=O)c3cccc(C)c3)c(OC)c2)ccc1O`, the IC50 was > 79 µM (inactive).
For `CCOC(=O)C1CCN(c2cc3c(cc2NC(=O)c2ccccc2Cl)n(C)c(=O)n3C)CC1`, the IC50 was 11.7 µM.
Consider `Cc1ccc2sc(NNC(=O)c3ccc4c(c3)OCCO4)nc2c1C`, for which the IC50 is > 79 µM (inactive).
As to `COc1ccc(-c2cc(=O)oc3cc(OC(=O)C4CCCCC4)ccc23)cc1`, the IC50 was 31.7 µM (inactive).
As for `CN(CC(=O)Nc1ccccc1Cl)C(=O)CCc1nc2ccccc2c(=O)[nH]1`, the IC50 is 38 µM (inactive).
Take `O=C(Nc1cccc(NC(=O)c2ccc([N+](=O)[O-])o2)c1)c1ccco1`: the IC50 is > 79 µM (inactive).
`CCCNC(=O)c1ccc2c(=O)c(O)c(-c3ccc(F)cc3)[nH]c2c1`: the IC50 is > 79 µM (inactive).
Take `CC(=O)c1ccc(-c2cnc3c(NC=O)cc(-c4cccc(NS(C)(=O)=O)c4)cn23)cc1`: the IC50 was > 79 µM (inactive).
The figure for `COc1ccc(NC(=S)N(Cc2cccnc2)Cc2cc3cc(OC)c(OC)cc3[nH]c2=O)cc1` is > 79 µM (inactive); for `Cc1ccc(NC(=O)c2cc(=O)c3ccccc3o2)cc1S(=O)(=O)N1CCOCC1` it is 35.4 µM (inactive).
Take `CS(=O)(=O)c1ccc(-c2cnc3c(NC=O)cc(-c4ccsc4)cn23)cc1`: the IC50 is > 79 µM (inactive).
For `CC(=O)NCCNc1nc2c(-c3ccccc3)nnn2c2ccccc12`, the IC50 is > 79 µM (inactive).
For the compound `Cc1nc2c(c(=O)n1CCC1=CCCCC1)c1nc3ccccc3nc1n2/N=C/c1ccccc1`, the IC50 is 11.7 µM.
As to `Cn1c(NCc2ccco2)nc2c1c(=O)n(Cc1ccc(Cl)cc1)c(=O)n2C`, the IC50 was 31.3 µM (inactive).
For the compound `Clc1nc2sccn2c1/C=N/n1cnc2ccccc21`, the IC50 is > 79 µM (inactive).
With `CCc1nc(N2CCN(C(=O)c3ccco3)CC2)c2oc3ccccc3c2n1` the figure was > 79 µM (inactive); with `COc1cc(CN2C[C@@H](CO)O[C@@H](n3cnc4c(Nc5ccccc5)ncnc43)C2)cc(OC)c1OC`, 12.7 µM.
For `Cn1c(=O)n(CCc2ccccc2)c(=O)c2c1nc1n2CCCN1Cc1ccccc1`, the IC50 was 14.1 µM.
As for `O=C(CCc1nc2ccccc2c(=O)[nH]1)OCCOc1ccc(Cl)cc1`, the IC50 was 31.3 µM (inactive).
For the compound `COc1ccccc1CN(Cc1nc2ccccc2c(=O)[nH]1)S(=O)(=O)c1ccc2ccccc2c1`, the IC50 is > 79 µM (inactive).
In the case of `Cc1ccc(N=Cc2cc(Br)cc(Cl)c2O)cc1`, the IC50 is > 79 µM (inactive).
The figure for `O=C(NCc1ccco1)c1cnn2c(C(F)(F)F)cc(-c3cccs3)nc12` is > 79 µM (inactive); for `COc1ccc(CCNC(=O)C(=O)NCC2CCCN2S(=O)(=O)c2cc(C)ccc2C)cc1` (configuration not stated) it is > 79 µM (inactive); for `CCOC(=O)C(Cc1ccc(NC(=O)/C(=C/c2ccc(OC(C)=O)cc2)NC(C)=O)cc1)N1C(=O)c2ccccc2C1=O` (configuration not stated) it is > 79 µM (inactive).
Consider `CCC(=O)Nc1cccc(-c2nnc(-c3cccc(NC(=O)CC)c3)o2)c1`, for which the IC50 is > 79 µM (inactive).
Regarding `CC(C)NC(=O)COC(=O)Cn1[nH]c(=O)c2ccccc2c1=O`, the IC50 is > 79 µM (inactive).
As to `CCOc1ccc(-n2cc(-c3ccccc3)c3c(N4CCOCC4)ncnc32)cc1`, the IC50 is > 79 µM (inactive).
For `O=C(CSc1nc2ccccc2c(=O)[nH]1)c1ccc(O)cc1O`, the IC50 was 33.1 µM (inactive).
With `N#C/C(=C1\CCCN1)c1nc2ccccc2c(=O)[nH]1`, the IC50 is > 79 µM (inactive).
On to `O=C(Nc1ccccc1C(=O)Nc1ccccc1C(=O)NCc1ccco1)c1ccco1`, for which the half-inhibitory concentration (IC50) was 8.02 µM.
With `Cc1c(N=Cc2cc(Br)cc(Br)c2O)cccc1C(=O)O` the figure was > 79 µM (inactive); with `c1ccc2c(c1)nc(Nc1ccc3c(c1)OCO3)c1nnnn12`, 16.9 µM.
In the case of `Cc1ccc(-c2nn3c(-c4ccco4)nnc3c3ccccc23)cc1S(=O)(=O)NCC1CCCO1` (configuration not stated), the IC50 is 23.3 µM.
As for `C/C(=N\NC(=O)c1nnn(-c2nonc2N)c1CSc1ccc(C)cc1)c1cccnc1`, the IC50 is > 79 µM (inactive).
As for `C/C(=N\Nc1nnc2c3ccccc3n(C)c2n1)c1ccc(C)o1`, the IC50 is > 79 µM (inactive).
Consider `COc1ccc(C(CC(=O)N2CCN(c3ccccc3)CC2)c2c(OC)cc(OC)c3ccc(=O)oc23)cc1` (configuration not stated), for which the IC50 is 23.2 µM.
With `COCCCn1c(N)c(C(=O)Nc2sc3c(c2C(=O)OC)CCCC3)c2nc3ccccc3nc21` the figure was 34 µM (inactive); with `Nc1ccc2nc(-c3cccs3)[nH]c2c1`, > 79 µM (inactive).
Consider `CC1(C)Cc2c(c(N3CCOCC3)nc3sc4c(NN)ncnc4c23)CS1`, for which the IC50 was > 79 µM (inactive).
In the case of `CC(OC(=O)Cc1n[nH]c(=O)c2ccccc12)C(=O)Nc1ccccc1[N+](=O)[O-]` (configuration not stated), the IC50 was 49.1 µM (inactive).
With `COc1cc(Nc2nc3ccccc3n3nnnc23)cc(OC)c1OC`, the IC50 is > 79 µM (inactive).
Consider `Cc1ccc(N(CCC#N)C(=O)CSc2nc3ccccc3c(=O)[nH]2)cc1`, for which the IC50 is > 79 µM (inactive).
With `O=C(NCc1ccco1)c1cc(-c2cccnc2)nc2ccc(Cl)cc12` the figure was > 79 µM (inactive); with `CC1Nc2ncnc(N3CCN(c4ccccc4)CC3)c2N(Cc2ccc(Cl)cc2)C1=O` (configuration not stated), 12.7 µM.
With `Cc1c(O)c(CN2CCCCC2)cc2c1oc(=O)c1ccccc12` the figure was > 79 µM (inactive).
Turning to `COc1cccc(-c2cnc3c(NC(C)=O)cc(-c4cccc(NS(C)(=O)=O)c4)cn23)c1`, the IC50 was > 79 µM (inactive).
`COC(=O)c1c(C)[nH]c(C(=O)COc2ccc3ccc(=O)oc3c2)c1C`: the IC50 was > 79 µM (inactive).
`C=CCC[C@H](Cc1ccc(F)cc1)C(=O)OC[C@@H](Cc1c[nH]c2ccccc12)NC(=O)[C@@H](CC=C)CC(=O)NCCO`: the IC50 was > 79 µM (inactive).
As for `O=C(NCC(=O)N(Cc1cccs1)C(C(=O)NC1CCCCC1)c1ccco1)c1cccs1` (configuration not stated), the IC50 was 15.3 µM.
With `CC(C)(C)c1nn(-c2ccccc2)c2[nH]c(=O)c(CNCc3ccco3)cc12` the figure was 40.3 µM (inactive); with `CCOCc1c(C(=O)NC2=Nc3ccccc3NC(CC)=C2C(=O)OCC)oc2ccccc12`, > 79 µM (inactive).
With `N#CCCN(C(=O)COC(=O)CCc1nc2ccccc2c(=O)[nH]1)c1ccc(F)cc1` the figure was > 79 µM (inactive); with `CCN(CC(=O)Nc1ccc(OC)cc1)C(=O)CCc1nc2ccccc2c(=O)[nH]1`, > 79 µM (inactive); with `COC(=O)c1cc(OC)c(OC)cc1NC(=O)c1ccc(OC)c(OC)c1`, > 79 µM (inactive).
For `O=C(OCc1nnc(-c2ccccc2)o1)c1ccc([N+](=O)[O-])s1`, the half-maximal inhibitory concentration (IC50) is 24.8 µM.
With `CCCCn1c(N)c(Br)c(=O)[nH]c1=O`, the IC50 is > 79 µM (inactive).
With `Cc1ccc(Cn2c(CCNc3nc(-c4ccc(Cl)c([N+](=O)[O-])c4)cs3)nc3cc(C(=O)NCCCO)ccc32)cc1`, the IC50 was > 79 µM (inactive).
The figure for `Cc1ccc(CNC(=O)CCc2nc3ccccc3c(=O)[nH]2)cc1` is 13.9 µM; for `COC(=O)c1ccccc1NC(=O)/C=C/c1cc(OC)c(OC)c(OC)c1` it is 22.9 µM; for `COc1ccc(NC(=O)N(C)C[C@H]2Oc3c(NC(=O)Nc4ccc(C(F)(F)F)cc4)cccc3C(=O)N([C@H](C)CO)C[C@@H]2C)cc1` it is > 79 µM (inactive).
In the case of `COc1ccc(OCC(O)Cn2c(Nc3cccc(C)c3)nc3c2c(=O)n(C)c(=O)n3C)cc1` (configuration not stated), the IC50 was > 79 µM (inactive).
Consider `C[C@H](CO)N1C[C@H](C)[C@@H](CN(C)S(=O)(=O)c2cccs2)Oc2ccc(NC(=O)Nc3ccccc3)cc2C1=O`, for which the IC50 was 28.2 µM.
On to `CSCC[C@H](NC(=O)OC(C)(C)C)C(=O)N/N=C/c1cccc2cccnc12`, for which the IC50 is 30.9 µM (inactive).
For the compound `NC(=O)c1oc2ccccc2c1NC(=O)c1ccco1`, the IC50 was 29.4 µM.
On to `COC(=O)Sc1nc(N2CCOCC2)c2c(c1C#N)CC(C)(C)OC2`, for which the IC50 is > 79 µM (inactive).
For `CCN(CC)C(=O)c1ccc2c3c(cccc13)C(=O)N(CCc1ccc(OC)c(OC)c1)C2=O`, the IC50 was 11.5 µM.
For the compound `COc1ccc(-c2csc(NC(=O)c3ccc(OCC(=O)N4CCOCC4)c(OC)c3)n2)cc1OC`, the IC50 is > 79 µM (inactive).
`CN(CC(=O)Nc1ccccc1Br)C(=O)Cn1[nH]c(=O)c2ccccc2c1=O`: the IC50 was > 79 µM (inactive).
The figure for `Cc1cc(C)c(S(=O)(=O)N2CCN(C(=O)c3cc(=O)[nH]c4ccccc34)CC2)c(C)c1` is 19.3 µM; for `CCn1c(=O)c(C(=O)NC(C)c2ccccc2)c(O)c2ccccc21` (configuration not stated) it is > 79 µM (inactive); for `CCC(C)N(C(=O)COC(=O)Cc1n[nH]c(=O)c2ccccc12)C1CCS(=O)(=O)C1` (configuration not stated) it is > 79 µM (inactive).
In the case of `COc1cccc(-c2nnc3sc(-c4ccccn4)nn23)c1`, the IC50 is > 79 µM (inactive).
The figure for `COC(=O)c1cc(C(=O)OCC(=O)N2c3ccccc3NC(=O)C2(C)C)cc([N+](=O)[O-])c1` is 39 µM (inactive); for `COc1cc(-c2cc3nc(NCCc4ccc(S(N)(=O)=O)cc4)ccn3n2)cc(OC)c1OC` it is 15.8 µM; for `CCOC(=O)C1CCN(C(=O)c2ccc3c(=O)n4nc(Nc5ccccc5OC)sc4nc3c2)CC1` it is 19.3 µM.
As to `Cn1c2ccccc2c2cc(/C=N/NC(=O)c3cc(O)ccc3O)ccc21`, the IC50 is > 79 µM (inactive).
With `O=C1c2cccnc2Oc2ccc(Cl)cc2N1Cc1ccc(F)cc1` the figure was > 79 µM (inactive); with `O=C(CCc1nc2ccccc2c(=O)[nH]1)NCc1ccco1`, > 79 µM (inactive).
